Results published in article PMC3970110 (Bioorganic & medicinal chemistry letters, 2013).

Target: T1, human NAD+-dependent 15-hydroxyprostaglandin dehydrogenase (HPGD, 15-PGDH) (Homo sapiens, UniProt P15428)
T1 sequence (P15428 1-266): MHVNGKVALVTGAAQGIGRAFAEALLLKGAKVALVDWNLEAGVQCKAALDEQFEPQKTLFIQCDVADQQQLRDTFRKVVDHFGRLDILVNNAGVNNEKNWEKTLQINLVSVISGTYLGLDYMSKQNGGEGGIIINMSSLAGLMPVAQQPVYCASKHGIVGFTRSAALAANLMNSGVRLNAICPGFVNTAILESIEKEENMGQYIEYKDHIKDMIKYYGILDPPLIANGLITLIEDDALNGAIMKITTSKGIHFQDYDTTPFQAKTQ
Experiment: HPGD HTS enzymatic assay
Type: biochemical

decrease in HPGD activity relative to ML148: 20 fold
Structure (SMILES): Cc1cccc(-n2cnc3cc(C(=O)N4CCCC4)ccc32)c1 [Compound 11i]
